Experimental data from patent publication US9414998B2, “Preventing or ameliorating agent for pigmentation” (Pola Chemical Industries Inc., priority 2009, dated 2016).

tested on: normal human melanocyte; assay: Ultraviolet B (UVB)-induced activation inhibition test using normal human melanocyte (MTT, supernatant of UVB-irradiated keratinocytes); assay type: cell-based; settings: light or radiation study, UVB 5 mJ/cm^2, compound 100 mM in DMSO diluted 1,000 times, formazan production ratio, DMSO negative control irradiated with UVB = 100, average of three measurements, read-out: Melanocyte proliferation ratio Average (%)
Description: The suppressing effect of each of the compounds, which was exerted on the activation of melanocyte by the melanocyte activating factor produced and released from normal human keratinocyte by the ultraviolet B (UVB), was investigated by using the index of the cell proliferation function of normal human melanocyte.
Normal human keratinocyte cells (Kurabo Industries, Ltd.) were seeded by using Humedia-KG2 medium (Kurabo Industries, Ltd.) at a concentration of 10×10^4 cells/well in 24-well plate, followed by being cultured for 24 hours.
The compound to be evaluated was dissolved at a concentration of 100 mM in DMSO, which was diluted 1,000 times with Humedia-KG2 medium and used as a sample solution. As for the positive control group, tranexamic acid was dissolved at a concentration of 100 mM in DMSO, which was diluted 1,000 times with Humedia-KG2 medium and used as a positive control sample solution. As for the negative control group, DMSO was diluted 1,000 times with Humedia-KG2 medium, which was used as a negative control sample solution. A concentration, at which the cell proliferation of normal human melanocyte was not affected, was set for each of the compounds.
The medium of normal human keratinocyte was exchanged with Humedia-KG2 medium (sample solution) containing the compound at a predetermined concentration, and the cells were cultured for further 24 hours. After that, the medium was exchanged with PBS (phosphate buffered saline), and cells were irradiated with the ultraviolet B (UVB) at 5 mJ/cm^2 by using an ultraviolet lamp (FL20S•E-30/DMR, Toshiba Medical Supply Co., Ltd.) as a light source. After the ultraviolet radiation, PBS was exchanged with the sample solution. Cells were cultured for further 24 hours, and then the culture supernatant was collected.
Normal human melanocyte cells were seeded to 96-well plate by using a medium of Medium 254 (Kurabo Industries, Ltd.) so that the concentration was 3×10^4 cells/well, and the cultivation was performed for 24 hours. After that, the medium was exchanged with the culture supernatant collected from normal human keratinocyte, and the cells were cultured for further 24 hours. After the cultivation for 24 hours, the medium was exchanged with Humedia-KG2 medium containing 0.5 mg/mL of 3-(4,5-dimethyl-2-thiazoyl)-2,5-diphenyl-2H-tetrazolium bromide (MTT), and the cultivation was performed for 3 hours.
The formazan amount was determined by measuring the absorbances at 570 nm and 690 nm of cell lysate prepared with 2-propanol by means of a microplate reader (Benchmark Plus, Bio-Rad) and subtracting the absorbance at 690 nm from the absorbance at 570 nm.
The suppressing effect of each of the compounds on the melanocyte proliferation was represented by the percentage (%) as the formazan production ratio while the absorbance of the DMSO added group (negative control group) irradiated with the ultraviolet B (UVB) was assumed as 100.
It can be judged that the lower the production ratio of formazan is, the lower the melanocyte proliferation ratio is. Therefore, when the production ratio of formazan is lower, it is possible to judge that the suppressing activity of the compound to be evaluated is high with respect to the activation of melanocyte by the melanocyte activating factor produced and released by normal human keratinocyte.

| SMILES | activity at 100 µM [%] |
| --- | --- |
| Cc1ccc(C(=O)NC(CO)C(=O)O)cc1 (racemic) [Compound 3, N-(p-methylbenzoyl)serine] | 61.6 |
| COCC(NC(=O)c1ccc(C)cc1)C(=O)O (racemic) [Compound 9, N-(p-methylbenzoyl)-O-methylserine] | 62.3 |
| COCC(NC(=O)c1ccc2ccccc2c1)C(=O)O (racemic) [Compound 13, N-(2-naphthoyl)-O-methylserine] | 80.3 |
| COCC(NC(=O)c1ccccc1)C(=O)O (racemic) [Compound 16, N-benzoyl-O-methylserine] | 65.5 |
| Cc1ccc(C(=O)N[C@@H](CO)C(=O)O)cc1 [Compound 1, N-(p-methylbenzoyl)-L-serine] | 57 |
| O=C(N[C@@H](CO)C(=O)O)c1ccccc1 [Compound 2, N-benzoyl-serine] | 60.9 |
| O=C(N[C@@H](CO)C(=O)O)c1ccc(F)cc1 [Compound 4, N-(p-fluorobenzoyl)serine] | 55.3 |
| COc1ccc(C(=O)N[C@@H](CO)C(=O)O)cc1 [Compound 5, N-(p-methoxybenzoyl)serine] | 63.4 |
| CCc1ccc(C(=O)N[C@@H](CO)C(=O)O)cc1 [Compound 7, N-(p-ethylbenzoyl)serine] | 65.1 |
| O=C(N[C@@H](CO)C(=O)O)c1ccc(C(F)(F)F)cc1 [Compound 8, N-(p-trifluoromethylbenzoyl)serine] | 53.9 |
| O=C(N[C@@H](CO)C(=O)O)c1ccc2ccccc2c1 [Compound 10, N-(2-naphthoyl)serine] | 82.4 |
| CC(=O)OC[C@H](NC(=O)c1ccc(C)cc1)C(=O)O [Compound 11, N-(p-methylbenzoyl)-O-acetylserine] | 71.8 |
| COC(=O)[C@H](CO)NC(=O)c1ccc2ccccc2c1 [Compound 12, N-(2-naphthoyl)serine methyl ester] | 83.1 |
| O=C(N[C@@H](CO)C(=O)O)c1ccc(-c2ccccc2)cc1 [Compound 14, N-(4-phenylbenzoyl)serine] | 75 |
| Cc1ccc(C(=O)NC(CO)C(=O)O)cc1 (stereo not drawn) [Compound 15, N-(p-methylbenzoyl)serine] | 60.2 |
| CCOC(=O)[C@H](CO)NC(=O)c1ccc(C)cc1 [Compound 17, N-(p-methylbenzoyl)serine ethyl ester] | 73.6 |
| NC[C@H]1CC[C@H](C(=O)O)CC1 [Tranexamic acid, tranexamic acid, reference compound] | 82 |

tested on: pigmented guinea pigs; assay: Ultraviolet ray-induced pigmentation inhibition test using pigmented guinea pigs; assay type: in vivo, guinea pig; settings: 3% (w/v) in ethanol, 30 μL once a day for 5 weeks; L* on 36th day minus L* before ultraviolet radiation; average ± standard deviation of 8 samples; solvent control −11.83 ± 0.78
Text: Skins of backs of eight pigmented guinea pigs were subjected to the hair removal and the hair shaving with electric hair clippers and shaver, and these sites were covered with black cloths each having four radiation windows of 2×2 cm in total disposed at two upper left and right positions and two lower left and right positions respectively. After that, the ultraviolet ray was radiated at 300 mJ/cm^2 by using FL20S•E30 lamp as the light source. This operation was repeatedly performed on 1st, 3rd, 5th, and 8th days of the test to induce the pigmentation at the four test sites. The compound to be evaluated (Compound 1) was dissolved and prepared in ethanol so that the concentration was 3% (w/v). Ethanol was applied as the solvent control group. The application of each of the compounds to be evaluated was started from the time of completion of the ultraviolet radiation on the 1st day of the test. Each of the compounds to be evaluated was applied in an amount of 30 μL once a day to the predetermined test sites, and this procedure was continuously carried out for 5 weeks (until 35th day of the test). […]

| SMILES | ΔL* value |
| --- | --- |
| Cc1ccc(C(=O)N[C@@H](CO)C(=O)O)cc1 [Compound 1, N-(p-methylbenzoyl)-L-serine] | −9.98 ± 0.71 |
